# Results taken from the NIST ThermoML archive (doi:10.1016/j.jct.2005.02.003).
# ± gives the expanded uncertainty stated by the source.
# Assay: molar heat capacity at constant pressure
# Conditions: 101.33 kPa, Crystal
smiles,measurement,setting,value
CC(C)COC(C)(C)C [isobutyl tert-butyl ether],molar heat capacity at constant pressure,5 K,0.38 ± 0.055 J/K/mol
same,molar heat capacity at constant pressure,7.68 K,1.339 ± 0.086 J/K/mol
same,molar heat capacity at constant pressure,8.33 K,1.743 ± 0.099 J/K/mol
same,molar heat capacity at constant pressure,8.97 K,2.217 ± 0.11 J/K/mol
same,molar heat capacity at constant pressure,9.61 K,2.779 ± 0.13 J/K/mol
same,molar heat capacity at constant pressure,10 K,3.042 ± 0.14 J/K/mol
same,molar heat capacity at constant pressure,10.26 K,3.32 ± 0.15 J/K/mol
same,molar heat capacity at constant pressure,11.02 K,4.139 ± 0.17 J/K/mol
same,molar heat capacity at constant pressure,11.92 K,5.166 ± 0.2 J/K/mol
same,molar heat capacity at constant pressure,12.83 K,6.289 ± 0.23 J/K/mol
same,molar heat capacity at constant pressure,13.74 K,7.45 ± 0.26 J/K/mol
same,molar heat capacity at constant pressure,14.65 K,8.714 ± 0.29 J/K/mol
same,molar heat capacity at constant pressure,15 K,9.221 ± 0.3 J/K/mol
same,molar heat capacity at constant pressure,15.57 K,10.02 ± 0.32 J/K/mol
same,molar heat capacity at constant pressure,16.48 K,11.42 ± 0.35 J/K/mol
same,molar heat capacity at constant pressure,17.41 K,12.82 ± 0.37 J/K/mol
same,molar heat capacity at constant pressure,18.34 K,14.27 ± 0.4 J/K/mol
same,molar heat capacity at constant pressure,19.27 K,15.69 ± 0.42 J/K/mol
same,molar heat capacity at constant pressure,20 K,16.85 ± 0.45 J/K/mol
same,molar heat capacity at constant pressure,20.2 K,17.2 ± 0.45 J/K/mol
same,molar heat capacity at constant pressure,21.22 K,18.77 ± 0.47 J/K/mol
same,molar heat capacity at constant pressure,22.29 K,20.45 ± 0.49 J/K/mol
same,molar heat capacity at constant pressure,23.35 K,22.1 ± 0.52 J/K/mol
same,molar heat capacity at constant pressure,24.42 K,23.8 ± 0.53 J/K/mol
same,molar heat capacity at constant pressure,25 K,24.7 ± 0.53 J/K/mol
same,molar heat capacity at constant pressure,25.49 K,25.53 ± 0.54 J/K/mol
same,molar heat capacity at constant pressure,26.55 K,27.09 ± 0.55 J/K/mol
same,molar heat capacity at constant pressure,27.63 K,28.56 ± 0.55 J/K/mol
same,molar heat capacity at constant pressure,28.7 K,30.12 ± 0.56 J/K/mol
same,molar heat capacity at constant pressure,29.77 K,31.74 ± 0.56 J/K/mol
same,molar heat capacity at constant pressure,30 K,32.07 ± 0.52 J/K/mol
same,molar heat capacity at constant pressure,30.84 K,33.37 ± 0.53 J/K/mol
same,molar heat capacity at constant pressure,31.91 K,34.71 ± 0.55 J/K/mol
same,molar heat capacity at constant pressure,32.98 K,36.13 ± 0.56 J/K/mol
same,molar heat capacity at constant pressure,34.05 K,37.59 ± 0.57 J/K/mol
same,molar heat capacity at constant pressure,35 K,38.76 ± 0.59 J/K/mol
same,molar heat capacity at constant pressure,35.12 K,38.89 ± 0.59 J/K/mol
same,molar heat capacity at constant pressure,36.19 K,40.25 ± 0.61 J/K/mol
same,molar heat capacity at constant pressure,37.26 K,41.63 ± 0.61 J/K/mol
same,molar heat capacity at constant pressure,38.34 K,42.83 ± 0.63 J/K/mol
same,molar heat capacity at constant pressure,39.41 K,44.07 ± 0.64 J/K/mol
same,molar heat capacity at constant pressure,40 K,44.8 ± 0.65 J/K/mol
same,molar heat capacity at constant pressure,40.47 K,45.31 ± 0.66 J/K/mol
same,molar heat capacity at constant pressure,41.54 K,46.53 ± 0.67 J/K/mol
same,molar heat capacity at constant pressure,42.6 K,47.83 ± 0.68 J/K/mol
same,molar heat capacity at constant pressure,43.66 K,48.91 ± 0.69 J/K/mol
same,molar heat capacity at constant pressure,44.72 K,50.25 ± 0.71 J/K/mol
same,molar heat capacity at constant pressure,45 K,50.39 ± 0.71 J/K/mol
same,molar heat capacity at constant pressure,45.78 K,51.18 ± 0.71 J/K/mol
same,molar heat capacity at constant pressure,46.84 K,52.39 ± 0.72 J/K/mol
same,molar heat capacity at constant pressure,47.9 K,53.45 ± 0.73 J/K/mol
same,molar heat capacity at constant pressure,48.96 K,54.66 ± 0.75 J/K/mol
same,molar heat capacity at constant pressure,50 K,55.71 ± 0.76 J/K/mol
